Results reported in publication PMC11843658 (Journal of Enzyme Inhibition and Medicinal Chemistry, 2025).
Read-outs that look alike come from different tables or passages of the source. One block for each compound: values may come before it.

Tests used:
PC3 cells = assay: CCK8 assay, PC3 prostate cancer cells; format: cell-based; settings: Homo sapiens, PC-3, CCK8, control drug, read-out: IC50, antiproliferative activity
Method: (§1) C42B, PC3, Caco-2, HepG2, MCF7, HL-60, 8505 C, OVCAR-3, and A549 were cultured to screen the broad-spectrum antiproliferative activity of compound 14. For above cell lines, three thousand cells per well were seeded in the 96-well plate and treated by compound 14 for 48 or 72 h at different concentrations (0, 5, 10, and 20 μM). In addition, HepG2, HEP3B, HUH6, and HUH7 were cultured to screen its antiproliferative activity against liver cancer cell lines. For these liver cancer cell lines, two thousand cells per well were seeded in the 96-well plate and treated by compound 14 for 48 h at different concentrations (0, 0.625, 1.25, 2.5, and 5 μM). Then, 10 μl of CCK8 was added into each well and cells were incubated in a humidified atmosphere of 5% CO2 at 37 °C for 4 h. The 96-well plate was measured with a microplate reader (Bio-Tek, San Diego, CA) at a wavelength of 450 nm to calculate IC50 values.

Caco-2 cells = assay: CCK8 assay, Caco-2 colon cancer cells; format: cell-based; settings: Homo sapiens, CCK8, control drug, read-out: IC50, antiproliferative activity
Method: as §1

8505 C cells = assay: CCK8 assay, 8505 C thyroid cancer cells; format: cell-based; settings: Homo sapiens, CCK8, control drug, read-out: IC50, antiproliferative activity
Method: as §1

MCF7 cells = assay: CCK8 assay, MCF7 breast cancer cells; format: cell-based; settings: Homo sapiens, CCK8, control drug, read-out: IC50, antiproliferative activity
Method: as §1

A549 cells = assay: CCK8 assay, A549 lung cancer cells; format: cell-based; settings: Homo sapiens, CCK8, control drug, read-out: IC50, antiproliferative activity
Method: as §1

HL-60 cells = assay: CCK8 assay, HL-60 leukaemia cells; format: cell-based; settings: Homo sapiens, CCK8, control drug, read-out: IC50, antiproliferative activity
Method: as §1

HepG2 cells [1] = assay: CCK8 assay, HepG2 liver cancer cells; format: cell-based; settings: Homo sapiens, CCK8, control drug, read-out: IC50, antiproliferative activity
Method: as §1

C42B cells = assay: CCK8 assay, C42B prostate cancer cells; format: cell-based; settings: Homo sapiens, CCK8, control drug, read-out: IC50, antiproliferative activity
Method: as §1

OVCAR-3 cells = assay: CCK8 assay, OVCAR-3 ovarian cancer cells; format: cell-based; settings: Homo sapiens, CCK8, control drug, read-out: IC50, antiproliferative activity
Method: as §1

H3K4me1/2 = settings: cited from earlier work
THP-1 cells = tested on: THP-1 cells; parameters: method as in PMID 35525212; settings: read-out: IC50, antiproliferative activity; cited from earlier work
NB cells = tested on: NB cells; parameters: method as in PMID 36223680; settings: cited from earlier work
LSD1 [2] = target: T1, LSD1 (Homo sapiens, UniProt O60341); parameters: purchased Cayman Chemical (Ann Arbor, MI); settings: cited from earlier work
glioblastoma cells = tested on: glioblastoma cells; parameters: method as in PMID 29683097; settings: cited from earlier work
HepG2 = tested on: HepG2; parameters: method as in earlier work; settings: HepG2 cell line; read-out: IC50, antiproliferative activity; cited from earlier work
PC3 = tested on: PC3; parameters: method as in earlier work; settings: PC3 cell line; read-out: IC50, antiproliferative activity; cited from earlier work
MCF-7 = settings: read-out: IC50, antiproliferative activity, cited from earlier work
[3] = tested on: diffuse large B-cell lymphoma cells; parameters: method as in PMID 26002965; settings: cited from earlier work
KMS-12-PE cells = tested on: KMS-12-PE cells; parameters: method as in PMID 36476642; settings: myeloma KMS-12-PE cells; read-out: IC50, antiproliferative activity; cited from earlier work
MOLP-8 cells = tested on: MOLP-8 cells; parameters: method as in PMID 36476642; settings: myeloma MOLP-8 cells; read-out: IC50, antiproliferative activity; cited from earlier work
HCT-116 cells = tested on: HCT-116 cells; parameters: method as in PMID 33773285; settings: read-out: IC50, antiproliferative activity; cited from earlier work
ovarian cancer cells = tested on: ovarian cancer cells; parameters: method as in PMID 31264855; settings: cited from earlier work
various cell lines = tested on: various cell lines; parameters: method as in PMID 26890117; settings: cited from earlier work
ACHN cells = tested on: ACHN cells; parameters: method as in PMID 33527838; settings: cited from earlier work
HepG2 cells [4] = assay: Xenograft study, HepG2 cells in nude mice; format: in vivo, BALB/c nude mice; settings: 10 mg/kg by gavage every day for 21 days, nude mice bearing HepG2 cells
Method: Tumorigenesis in nude mice could stimulate the growth process of human tumours in the body, and could be used to develop and evaluate the effectiveness and safety of anti-cancer candidates. Therefore, xenograft studies in nude mice were performed to evaluate anticancer effects of compound 14. Animals were treated according to the protocols established by the ethics committee of The Fourth Clinical College of Xinxiang Medical University. The in vivo experiments were carried out in accordance with the approved guidelines and approved by the ethics committee of The Fourth Clinical College of Xinxiang Medical University. The number of ethics approvals is XMU-2024–01-03. All authors have adhered to the ARRIVE guidelines (https://arriveguidelines.org/). BALB/c nude mice were purchased from Beijing Huafukang Biotechnology Co., LTD (Beijing, China), and fifteen mice were used in this study (aged 6–7 weeks and weighing 20–30 g). Before the animal experiments, all nude mice were given a week to adjust to the clean, hygienic and specific-pathogen-free environment. All nude mice were taken care of instainless steel cages with a constant temperature of 60% humidity, 25 °C and a 12/12 light/dark cycle. Nude mice were fed with refreshing water and nourishing food everyday.
Then, nude mice were anaesthetised with 2% isoflurane and 0.3 l/min of oxygen by the small animal anaesthesia machine (Beijing Yi Zejia Technology Co., LTD, Beijing, China). 3 × 10^5 human liver cancer HepG2 cells were subcutaneously injected in the right armpit of mice. Until the volume of tumours reached 60–100 mm^3, all mice were randomly divided into three groups and each group had five nude mice. An amount of 60 mg/kg of compound 14, 10 mg/kg of seclidemstat and water as the control group were given by gavage every day for 21 days. Weight of mice and tumour volume were measured every 3 d. All nude mice in this xenograft studies were performed euthanizing procedures using a carbon dioxide euthanasia chamber (Shanghai Yuyan Instruments Co., Ltd, Shanghai, China). The flow rate of carbon dioxide was adjusted at 20% of the volume of the euthanasia chamber per minute. Once nude mice were unconscious, the flow rate was increased to 100% of the euthanasia chamber volume per minute. Death was confirmed by immobility, non-breathing and pupil enlargement. Tumours form BALB/c nude mice were isolated and weighed.

LSD1 [5] = target: T1, LSD1; assay: LSD1 screening assay kit (enzymatic activity); format: biochemical; parameters: purchased Cayman Chemical (Ann Arbor, MI); settings: fluorescence, read-out: IC50 against LSD1
Method: After the incubation for 30 min at 37 °C, a mixture of horseradish peroxidase solution (20 μl) and fluorometric substrate solution (10 μl) was added to each well. Then, the 96-well plate was incubated for 15 min at 37 °C. Finally, the fluorescence of each well in the 96-well plate was measured at an emission wavelength of 590 nm and an excitation wavelength of 530 nm by a fluorimeter (Agilent Technologies Inc., Palo Alto, CA). Seclidemstat, a famous LSD1 inhibitor, was used as the control drug in this assay.

- IC50 (PC3 cells): 12.3 µM
- IC50 (Caco-2 cells): > 20 µM
- IC50 (8505 C cells): 12.4 µM
- IC50 (MCF7 cells): > 20 µM
- IC50 (A549 cells): > 20 µM
- IC50 (HL-60 cells): 7.25 µM
- IC50 (HepG2 cells [1]): 9.87 µM
- IC50 (C42B cells): 16.7 µM
- IC50 (OVCAR-3 cells): > 20 µM
SMILES: O=c1[nH]cc(F)c(=O)[nH]1 [5-Fluorouracil]

SMILES: COc1cc2nc(NCCCN(C)C)nc(NC3CCN(Cc4ccc5ccccc5c4)CC3)c2cc1OC [Compound 2]
- expression levels of H3K4me2 (H3K4me1/2): increases the expression levels of H3K4me2
- IC50 (THP-1 cells): 0.3 µM

SMILES: O=S(=O)(Nc1ccc(Br)cc1-c1nn[nH]n1)c1ccc(-c2ccc(Cl)cc2)cc1 [Compound 3]
- synergistic effect with bortezomib (NB cells): displays the synergistic effect against NB cells with bortezomib

SMILES: COc1ccc(CN(C(=O)CSC(=S)N2CCN(c3ccc(N)cc3)CC2)c2cc(OC)c(OC)c(OC)c2)cc1O [Compound 6]
- accumulation of H3K4me1/2 (H3K4me1/2): induces the accumulation of H3K4me1/2
- LSD1 inhibition (LSD1 [2]): inhibits LSD1

SMILES: CCCCCCCCCCCCSC(=O)CC1CC(=O)NC(=O)C1 [Compound 7]
- cell cycle and clonogenic capacity (glioblastoma cells): induces cell cycle arrest and reduces clonogenic capacity

SMILES: O=C1CCC(NC(=O)CSc2nnc3c(=O)[nH]c4ccccc4n23)C(=O)N1 (stereo not shown) [Compound 8]
- IC50 (HepG2): 9.81 µM
- IC50 (PC3): 15.5 µM
- IC50 (MCF-7; MCF-7 cell line): 10.1 µM

SMILES: Cc1nc2cccc(N)c2c(=O)n1C1CCC(=O)NC1=O (stereo not shown) [Compound 9]
- apoptosis and proliferation [3]: induces apoptosis and inhibits proliferation

SMILES: O=C1CCC(CS(=O)(=O)Cc2ccccc2)C(=O)N1 (stereo not shown) [Compound 10]
- IC50 (KMS-12-PE cells): 5.17 µM
- IC50 (MOLP-8 cells): 5.52 µM

SMILES: Cc1ccc(S(=O)(=O)CCC(=O)Nc2ccc(S(N)(=O)=O)cc2)cc1 [Compound 11]
- IC50 (HCT-116 cells): 0.57 µM
- IC50 (MCF-7; MCF-7 cells): 0.67 µM

SMILES: COc1cccc(-c2cccc(NC(=O)CCc3cccc4c3B(O)OC4)c2)c1 [Compound 12]
- colony formation and apoptosis (ovarian cancer cells): significantly inhibits colony formation and induces apoptosis

SMILES: COc1cc(NC(=O)CCSc2nc3ccc(Cl)cc3c(=O)n2-c2ccc(F)cc2)cc(OC)c1OC [Compound 13]
- anticancer effects (various cell lines): exhibits extensive-spectrum anticancer effects

SMILES: O=C(c1ccc(OCCN2CCCCC2)cc1)c1c(-c2ccc(O)cc2)sc2cc(O)ccc12 [Raloxifene]
- migration of ACHN cells (ACHN cells): inhibits migration against ACHN cells

SMILES: C/C(=N\NC(=O)c1cccc(S(=O)(=O)N2CCN(C)CC2)c1)c1cc(Cl)ccc1O [Seclidemstat]
- growth of subcutaneous tumours (HepG2 cells [4]): inhibited the growth of subcutaneous tumours
- IC50 (LSD1 [5]): 0.02 ± 0.01 µM
